For data set [1], the system named is nitrotyrosine. The experiment in a line: Nitrotyrosine staining in macrophages. The note with it: combination of paraquat and cytomix. The format is cell-based. The protocol: Western blot analysis was carried out as follows. Cells were lysed in ice-cold 50 mM Tris buffer (pH 7.4) containing 1% sodium dodecyl sulfate and protease inhibitor cocktail (Boehringer Mannheim). Protein (10 μg) was separated on a 4-20% gradient SDS-PAGE at 250 V for 30 minutes and transferred onto a nitrocellulase membrane at 30 V for 12 hours. Proteins were detected using polyclonal antibodies against human NOS3 (TransductionLaboratories; 1/1000) and nitrated keyhole limpet hemocyanin, nitrotyrosine (Upstate Biology; 1/5000). Primary antibodies were detected with a goat anti-rabbit-HRP antibody (Jackson; 1/15,000) and developed using an ECL kit (Amersham).
The RAW-264.7 monocyte macrophage cells line (TIB-71) was purchased from the American Type Culture Collection (Manassas, Va.). The cells were grown in T-75 flasks containing DMEM (Gibco-BRL, Grand Island, N.Y.) supplemented with 1 mM pyruvate, 4.5 g/L glucose and […] fetal bovine serum Macrophages were plated at 2.0×10^4 cells/well in 24-well plates and experiments were performed when cells were near confluence. […]
(§1) NOS2 was induced in RAW cells using a mixture of interferon-γ and lipopolysaccharide (LPS) referred to as "cytomix." Unstimulated (basal) and activated (cytomix) macrophages were treated with 0.1 mM paraquat or not treated with paraquat and cytotoxicity and NO production were assessed at 24 hours.

Data set [2] deals with T1, Recombinant rat neuronal nitric oxide synthase (NOS1) (Rattus norvegicus, UniProt P29476).
T1 construct: purchased Oxis, Portland, Oreg
T1 sequence (P29476 whole entry): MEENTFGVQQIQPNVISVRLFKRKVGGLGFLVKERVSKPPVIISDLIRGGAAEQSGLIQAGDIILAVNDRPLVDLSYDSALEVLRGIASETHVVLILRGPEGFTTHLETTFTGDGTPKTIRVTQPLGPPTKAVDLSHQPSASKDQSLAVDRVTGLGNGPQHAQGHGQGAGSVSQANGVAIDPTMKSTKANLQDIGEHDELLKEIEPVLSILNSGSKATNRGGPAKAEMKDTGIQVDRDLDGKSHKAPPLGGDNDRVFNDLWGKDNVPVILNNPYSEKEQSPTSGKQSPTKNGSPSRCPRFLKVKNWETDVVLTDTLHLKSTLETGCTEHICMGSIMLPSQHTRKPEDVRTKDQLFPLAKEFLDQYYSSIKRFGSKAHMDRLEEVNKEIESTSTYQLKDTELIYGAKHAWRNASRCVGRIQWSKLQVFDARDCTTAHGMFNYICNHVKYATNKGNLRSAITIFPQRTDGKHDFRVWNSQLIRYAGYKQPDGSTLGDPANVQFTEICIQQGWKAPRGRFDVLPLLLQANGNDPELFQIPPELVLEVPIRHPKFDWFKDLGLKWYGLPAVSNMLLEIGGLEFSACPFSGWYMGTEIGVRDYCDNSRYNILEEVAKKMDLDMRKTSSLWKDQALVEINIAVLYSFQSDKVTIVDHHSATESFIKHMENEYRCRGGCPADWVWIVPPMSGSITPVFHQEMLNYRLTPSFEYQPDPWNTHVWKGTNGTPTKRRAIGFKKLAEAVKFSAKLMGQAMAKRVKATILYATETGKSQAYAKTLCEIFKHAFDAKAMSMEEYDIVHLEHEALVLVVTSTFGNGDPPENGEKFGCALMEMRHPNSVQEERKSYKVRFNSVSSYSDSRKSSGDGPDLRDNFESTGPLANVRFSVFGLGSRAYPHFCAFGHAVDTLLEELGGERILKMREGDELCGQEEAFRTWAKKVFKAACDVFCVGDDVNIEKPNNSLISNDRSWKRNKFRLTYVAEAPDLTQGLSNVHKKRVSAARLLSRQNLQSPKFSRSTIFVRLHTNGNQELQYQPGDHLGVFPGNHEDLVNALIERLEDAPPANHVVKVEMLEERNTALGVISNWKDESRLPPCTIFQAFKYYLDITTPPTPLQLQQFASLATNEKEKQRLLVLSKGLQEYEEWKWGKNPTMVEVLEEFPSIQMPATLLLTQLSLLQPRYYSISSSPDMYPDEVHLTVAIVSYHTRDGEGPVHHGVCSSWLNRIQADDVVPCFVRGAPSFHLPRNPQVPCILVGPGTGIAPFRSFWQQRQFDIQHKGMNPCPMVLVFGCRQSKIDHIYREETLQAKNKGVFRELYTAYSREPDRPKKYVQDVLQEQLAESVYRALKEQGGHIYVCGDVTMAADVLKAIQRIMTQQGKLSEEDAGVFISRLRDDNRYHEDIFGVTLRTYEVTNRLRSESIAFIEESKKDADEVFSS
The experiment in a line: NO formation by NOS1, total nitrite and nitrate (colorimetric). The format is biochemical. The procedure: (§2) Recombinant rat neuronal nitric oxide synthase (NOS1, Oxis, Portland, Oreg.), a constitutive enzyme, was used to assay NADPH oxidation in the presence of increasing concentrations of paraquat. Reactions (0.2 ml) were performed in bis-tris propane buffer (40 mM) containing L-arginine (1 mM), CaCl2 (1.2 mM), EDTA (0.9 mM), NADPH (0.35 mM), dithiothreitol (3 mM), tetrahydrobiopterin (4 μM), catalase (1 μg/ml) and calmodulin (200 U/ml) at pH 7.4. Reactions were initiated by the addition of 1.5 U of NOS1, and the oxidation of NADPH was continuously monitored at 340 nm for 1 minute at 37° C. in a plate reader. The rate of NOS-mediated NADPH oxidation was determined using an extinction coefficient of 6.22 mM^-1 cm^-1 after subtracting the baseline of NADPH oxidation.
The same microtiter plates used above were left at room temperature for 5 hours and then an aliquot was assayed for total nitrite and nitrate. Nitrite and nitrate were assayed using a non-enzymatic colorimetric kit (NB-88, Oxford Biomedical Research, Oxford, Mich.). NADPH oxidation was stopped after 5 hours by addition of 25 μl of zinc sulfate (30% w/v) to precipitate the NOS protein. Nitrate was non-enzymatically converted to nitrite by overnight incubation of 150 μl of reaction mixture from the NADPH oxidation assay with cadmium beads. Nitrite concentration was determined from a standard curve using 100 μl sample or standard. As shown FIG. 1(b), the formation of NO was inhibited by paraquat.

The subject of data set [3] is restenosis. The experiment in a line: Working Example VIII: restenosis patient. Conditions: 10 mg locally instilled via balloon, repeat angioplasty. Format: in vivo, human. The procedure:
A person undergoes angioplasty of the left anterior descending coronary artery. Two weeks following procedure, they present with chest pain and the radiographic evidence of restenosis. They undergo repeat angioplasty with infusion of paraquat (dosage of 10 mg), locally instilled under pressure via the balloon.

For data set [4], the system named is squamous cell carcinoma. The experiment in a line: Working Example VI: mouth squamous cell carcinoma patient. Format: in vivo, human. Conditions: 5 cc swish and spit, 100 μM. The procedure: A mouth lesion is noted in a smoker during a routine dental visit. The lesion is found to be a squamous cell carcinoma. […] The patient is given a 5 cc solution of paraquat swish and spit (at a dose of 100 μM).

The target of data set [5] is T1, Recombinant rat neuronal nitric oxide synthase (NOS1). The experiment in a line: NADPH oxidation (paraquat diaphorase activity) by recombinant rat neuronal nitric oxide synthase. The format is biochemical. The procedure: as §2
The experiment of Background Example 1 for NADPH oxidation was carried out in the presence and absence of 25 μM paraquat, without any NOS inhibitor (control), in the presence of L-NAME (1 mM) or in the presence of 1 mM L-NMMA. […] Only L-NAME shut down the NADPH oxidase activity.

Data set [6] has as its system CPA-47 endothelial cell line. The experiment in a line: LDH release from endothelial cells (cytotoxicity). Format: cell-based. Conditions: 2 mM paraquat, 24 hours; FIG. 2(b). The protocol:
To test whether the above effect was present in intact cells, endothelial cell cultures, constitutively expressing NOS3 protein as determined by western blot analysis, were treated with 2 mM paraquat in the presence of increasing concentrations of either L-NAME or L-NMMA.
The endothelial cells were obtained as follows: CPA-47 endothelial cell line (CRL-1733) was purchased from American Type Culture Collection (Manassas, Va.). Endothelial cells were grown in T-75 flasks containing Ham's F-12 K medium supplemented by 1 mM […] and 10% equine serum (Gibco-BRL, Grand Island, N.Y.). Endothelial cells were plated at 3.5×10^4 cells/well in 24-well plates and experiments were performed 48 hours later when cells were near confluence. Medium was changed to minimal essential medium without serum supplement. Endothelial cells were from passages 30-36.
Cytotoxicity was measured as the percent release of LDH and compared to vehicl-treated cells (basal). The percent release of cytosolic lactate dehydrogenase (LDH) into the culture medium was used to assess the integrity of the cell membrane. LDH activity was measured by following the loss of NADH at 340 nm as described in Day, B. J., et al., J. Pharmacol. Exp. Ther. 275, 1227-1232 (1995). The percent release of LDH into the culture medium 24 hours after the paraquat treatment was used to assess cell injury.
In general terms: LDH in the medium is a marker of cell lysis.

The subject of data set [7] is NOS2. The experiment in a line: NOS2 expression in macrophages. The format is cell-based. The note with it: 0.1 mM paraquat, cytomix; data not shown. The procedure:
The RAW-264.7 monocyte macrophage cells line (TIB-71) was purchased from the American Type Culture Collection (Manassas, Va.). The cells were grown in T-75 flasks containing DMEM (Gibco-BRL, Grand Island, N.Y.) supplemented with 1 mM pyruvate, 4.5 g/L glucose and […] fetal bovine serum Macrophages were plated at 2.0×10^4 cells/well in 24-well plates and experiments were performed when cells were near confluence. Macrophages were immunostimulated with 50 ng/ml lipopolysaccharide (LPS) from E. coli serotype 0111:B4 (Signia, St. Louis, Mo.) and 50 U/ml recombinant mouse interferon gamma (INF-γ, R&D Systems, Minneapolis,Minn.). Macrophages were used between passages 2-8. Cell cultures were kept in a 37° C. incubator with air and 5% carbon dioxide.
as §1

The mark [8] stands for this setting: conclusion of Background Example 1.

Take `C[n+]1ccc(-c2cc[n+](C)cc2)cc1` [paraquat]: the nitrotyrosine staining result in data set [1] is “A decrease in nitrotyrosine staining”. Also, in data set [2] (FIG. 1(b), 5 hours at room temperature), the “NO formation (accumulation of nitrite and nitrate)” value was “concentration dependent decrease in NO formation”. The IC50 (as a rule, the concentration that gives 50% inhibition) in data set [2] (concentration that inhibited NO formation by 50%, 95% confidence level 47-82 μM, 5 hours, read-out: IC50, inhibition of NO formation) is 62 µM. Besides, the NOS activity result in data set [2] (setting [8]) was “inhibits NOS activity”. Also, the restenosis or angina result in data set [3] was “without further episode of restenosis or angina”. The adverse effect result in data set [4] was “complicating oral ulcerations”. Besides, in data set [4] (seven days), the tumor regression result is “tumor is found to have regressed”. Further, in data set [5] (25 μM paraquat without NOS inhibitor, FIG. 2(a)), the “increase in NADPH oxidation over the basal rate” value is “about three-fold”. In addition, the “NOS diaphorase / superoxide formation” value in data set [5] (setting [8]) was “is an NOS diaphorase and causes superoxide formation”. Moreover, the “paraquat diaphorase activity of NOS1” value in data set [5] (in the presence of 1 mM L-arginine) is recorded as “NOS1 was found to exhibit paraquat diaphorase activity”. Moreover, in data set [5] (increasing paraquat concentrations, 1 mM L-arginine, pH 7.4, 37° C., FIG. 1(a)), the NADPH oxidation entry was “concentration-dependent increase in NADPH oxidation”. Also, the “increase in LDH release” value in data set [6] was “three-fold”. Besides, the NOS2 expression result in data set [7] is given as “not affected”.

These data come from patent US6231894A, “Treatments based on discovery that nitric oxide synthase is a paraquat diaphorase” (Duke University, priority 1999, dated 2001).
